Values joined by “and” are separate entries in the source; they are usually repeats but may differ in a detail not shown here. Identical values can stand only once. Like-named read-outs stand apart in the source and are kept apart here.
How the values were obtained:
[1] = test system: MCF7 human breast cancer cells; test: MTT cell viability assay, MCF7 breast cancer cells; type: cell-based; conditions: for IC50: MTT assay; for Selectivity Index: IC50 MCF 10A divided by IC50 MCF7, 72 h, MTT
Description: (§1) To evaluate the cytotoxicity of our compounds against cancer cells, they were evaluated in vitro against MCF7 human breast cancer cells. To examine the selectivity of our compounds, they were also studied against MCF 10A human normal cells. Both cell lines were exposed to different concentrations of our compounds for 72 h before measuring cell viability with the 3-(4,5-dimethylthiazol-2-yl)-2,5-diphenyltetrazolium bromide (MTT) assay (for conditions of the MTT assay, see the Experimental Part, Section 3). Docetaxel, an anticancer drug used in clinics, was tested under the same experimental conditions. Data were obtained from at least two independent experiments and were expressed as means ± standard error of means (SEM). The half-maximal inhibitory concentration (IC50) value of each compound was calculated, and the results are collected in Table 2. To evaluate the selective activity of our compounds, the selectivity index (SI) was also calculated. The curves of cell viability of MCF7 cancer cells and MCF 10A normal cells after the treatment with our compounds are shown (Figure 5, Figure 6, Figure 7, Figure 8 and Figure 9 and Figures S1–S4).
(§2) Exponentially growing cells were seeded into 96-well plates, and drugs were added 24 h later. Each compound was dissolved with DMSO (Panreac Applichem) to prepare a stock solution (100 mM). The working solutions of specific concentrations were prepared via the dilution of the stock solutions in the culture medium and were immediately used to treat the cells. The remaining stock solutions were aliquoted and frozen at −40 °C. We used different aliquots in each independent experiment to avoid the freeze–thaw cycles. Cells were exposed to the drugs for 72 h. After these 72 h, cell viability was determined with the MTT assay or the resazurin assay. These assays are colorimetric techniques that are widely used to determine cell viability.
(§3) The MTT assay is based on the capability of viable cells to transform the MTT salt into a purple formazan dye. After an incubation period of the cells with the MTT and a solubilization step, the quantity of the colored product is measured with a plate reading spectrophotometer. […] The quantity of formazan produced is presumably proportional to the number of viable cells. After seeding for 24 h, cells were treated with the tested drugs for 72 h. Then, medium was removed, and 125 μL of MTT (1 mg/mL in medium) was added to each well for 3–4 h. Subsequently, 80 μL of 20% sodium dodecyl sulfate (Panreac Applichem) in 20 mM hydrochloric acid (Panreac Applichem) was added to dissolve the insoluble purple formazan product, plates were incubated for 10 h at 37 °C, and optical densities were measured at 540 nm on a multiwell plate spectrophotometer reader.
(§4) In both assays, cell viability was expressed as percentage in relation to controls. All data were averaged from at least two independent experiments and were expressed as mean ± standard error of the mean (SEM). Selectivity indices (SI) were calculated by dividing the IC50 values in the nonmalignant cells by those in the cancer cells.

[2] = test system: MCF 10A human normal breast cells; test: MTT cell viability assay, MCF 10A normal breast cells; type: cell-based
Description: as §1, §2, §3, §4

[3] = Homo sapiens, MCF7, 72 h, 72 h exposure, read-out: IC50 (Mean ± SEM; μM) MCF7 (Cancer)
[4] = 72 h exposure, read-out: IC50 (Mean ± SEM; μM) MCF 10A (Normal)
[5] = 72 h exposure, read-out: IC50 (Mean ± SEM; μM) MCF7 (Cancer)

SMILES | IC50 [1, 3] | Selectivity Index [1] | IC50 [2, 4] | IC50 [1, 5] | IC50 ([1]; Homo sapiens, MCF7, 72 h, docetaxel line in nM, 72 h, read-out: IC50 (Mean ± SEM) MCF7 (Cancer)) | IC50 ([2]; docetaxel line in nM, 72 h, read-out: IC50 (Mean ± SEM) MCF 10A (Normal))
CC1CN(C(=O)C(C)(C)C)CCN1C(=O)Nc1ccc([N+](=O)[O-])cc1 (stereo not drawn) [Compound 7] | 60.8 ± 1.2 µM | 0.6 ± 0.1 | 38.5 ± 4.6 µM | – | – | –
COc1ccc(NC(=O)N2CCN(C(=O)C(C)(C)C)CC2C)cc1 (stereo not drawn) [Compound 8] | 118 ± 48.7 µM | 5.2 ± 3.1 | 541 ± 259 µM | – | – | –
CC1CN(C(=O)C(C)(C)C)CCN1C(=S)Nc1ccc([N+](=O)[O-])cc1 (stereo not drawn) [Compound 9] | < 20 µM | 4.2 ± 1.0 | 58.2 ± 18.3 µM | 15.8 ± 8.2 µM | – | –
CC1CN(C(=O)c2ccccc2)CCN1C(=O)Nc1ccc([N+](=O)[O-])cc1 (stereo not drawn) [Compound 10] | 26.7 ± 3.3 µM | 1.3 ± 0.1 | 34.1 ± 1.7 µM | – | – | –
COc1ccc(NC(=O)N2CCN(C(=O)c3ccccc3)CC2C)cc1 (stereo not drawn) [Compound 11] | 359 ± 74.7 µM | 1.4 ± 0.4 | 478 ± 35.6 µM | – | – | –
CC1CN(C(=O)OC(C)(C)C)CCN1C(=O)Nc1ccc([N+](=O)[O-])cc1 (stereo not drawn) [Compound 12] | 34.6 ± 4.8 µM | 2.4 ± 0.0 | 84.2 ± 12.4 µM | – | – | –
COc1ccc(NC(=O)N2CCN(C(=O)OC(C)(C)C)CC2C)cc1 (stereo not drawn) [Compound 13] | 250 ± 19.4 µM | 3.6 ± 0.6 | 915 ± 226 µM | – | – | –
CC1CN(C(=O)OC(C)(C)C)CCN1C(=S)Nc1ccc([N+](=O)[O-])cc1 (stereo not drawn) [Compound 14] | 34.2 ± 0.1 µM | 1.0 ± 0.1 | 35.6 ± 4.5 µM | – | – | –
CC1CN(C(=O)OC(C)(C)C)CCN1C(=O)Nc1ccc(Cl)cc1 (stereo not drawn) [Compound 15] | 43.4 ± 3.7 µM | 3.8 ± 1.1 | 170 ± 61.6 µM | – | – | –
CC1CN(C(=O)OC(C)(C)C)CCN1C(=O)Nc1ccc(C(F)(F)F)cc1 (stereo not drawn) [Compound 16] | 31.3 ± 3.6 µM | 1.9 ± 0.4 | 60.1 ± 19.8 µM | – | – | –
CC1CN(C(=O)OC(C)(C)C)CCN1C(=O)Nc1ccc(C(F)(F)F)c(Cl)c1 (stereo not drawn) [Compound 17] | 22.7 ± 1.6 µM | 1.9 ± 0.2 | 41.7 ± 4.1 µM | – | – | –
CC1CN(C(=O)c2cc3ccccc3o2)CCN1C(=O)Nc1ccc([N+](=O)[O-])cc1 (stereo not drawn) [Compound 18] | < 20 µM | 2.5 ± 0.2 | 30.4 ± 1.8 µM | 12.1 ± 0.6 µM | – | –
CC1CN(C(=O)c2cc3ccccc3o2)CCN1C(=O)Nc1ccc(Cl)cc1 (stereo not drawn) [Compound 19] | 30.5 ± 1.1 µM | – | 261 ± 2.6 µM | – | – | –
CC1CN(C(=O)c2cc3ccccc3o2)CCN1C(=O)Nc1ccc(C(F)(F)F)cc1 (stereo not drawn) [Compound 20] | 31.7 ± 4.1 µM | – | 244 ± 8.2 µM | – | – | –
CC1CN(C(=O)c2cc3ccccc3o2)CCN1C(=O)Nc1ccc(C#N)cc1 (stereo not drawn) [Compound 21] | < 20 µM | 1.6 ± 0.2 | 31.2 ± 2.8 µM | 19.4 ± 3.8 µM | – | –
CC1CN(C(=O)c2cc3ccccc3o2)CCN1C(=O)Nc1ccccc1[N+](=O)[O-] (stereo not drawn) [Compound 22] | 28.1 ± 1.2 µM | 1.2 ± 0.1 | 32.4 ± 1.9 µM | – | – | –

SMILES | IC50 [1, 3] | Selectivity Index [1] | IC50 [2, 4] | IC50 [1, 5] | IC50 ([1]; Homo sapiens, MCF7, 72 h, docetaxel line in nM, 72 h, read-out: IC50 (Mean ± SEM) MCF7 (Cancer)) | IC50 ([2]; docetaxel line in nM, 72 h, read-out: IC50 (Mean ± SEM) MCF 10A (Normal))
COc1ccccc1NC(=O)N1CCN(C(=O)c2cc3ccccc3o2)CC1C (stereo not drawn) [Compound 23] | 31.4 ± 5.5 µM | 2.3 ± 0.6 | 74.7 ± 30.2 µM | – | – | –
CC1CN(C(=O)c2cc3ccccc3o2)CCN1C(=O)Nc1ccccc1Br (stereo not drawn) [Compound 24] | 25.3 ± 1.6 µM | 1.3 ± 0.1 | 33.5 ± 3.5 µM | – | – | –
CC1CN(C(=O)c2cc3ccccc3o2)CCN1C(=O)Nc1ccccc1 (stereo not drawn) [Compound 25] | 48.5 ± 10.1 µM | 3.2 ± 0.7 | 161 ± 64.6 µM | – | – | –
CC(C)(C)OC(=O)N1CCN(C(=O)Nc2ccc([N+](=O)[O-])cc2)C(c2ccccc2)C1 (stereo not drawn) [Compound 26] | – | 15.2 ± 11.1 | 71.3 ± 3.6 µM | – | – | –
CC(C)(C)OC(=O)N1CCN(C(=O)Nc2ccc(Cl)cc2)C(c2ccccc2)C1 (stereo not drawn) [Compound 27] | < 20 µM | 2.2 ± 0.9 | 33.8 ± 6 µM | 16.8 ± 4 µM | – | –
CC(C)(C)OC(=O)N1CCN(C(=O)Nc2ccc(C#N)cc2)C(c2ccccc2)C1 (stereo not drawn) [Compound 28] | < 20 µM | 2.7 ± 0.8 | 55.2 ± 24.4 µM | 19.5 ± 3.5 µM | – | –
CC(C)(C)OC(=O)N1CCN(C(=O)Nc2ccc(F)cc2)C(c2ccccc2)C1 (stereo not drawn) [Compound 29] | 24.8 ± 1.7 µM | 2.2 ± 0.5 | 56.3 ± 16.5 µM | – | – | –
CC(C)(C)OC(=O)N1CCN(C(=O)Nc2ccccc2[N+](=O)[O-])C(c2ccccc2)C1 (stereo not drawn) [Compound 30] | 24.3 ± 3.4 µM | 2.6 ± 0.1 | 63.2 ± 10.9 µM | – | – | –
COc1ccc(NC(=O)N2CCN(C(=O)OC(C)(C)C)CC2c2ccccc2)cc1 (stereo not drawn) [Compound 33] | 130 ± 31.4 µM | 2.6 ± 0.4 | 325 ± 27.6 µM | – | – | –
Cc1ccc(NC(=O)N2CCN(C(=O)OC(C)(C)C)CC2c2ccccc2)cc1 (stereo not drawn) [Compound 34] | 24.4 ± 3.1 µM | 2.9 ± 0.5 | 68.7 ± 2.8 µM | – | – | –
O=C(c1cc2ccccc2o1)N1CCN(C(=O)Nc2ccc(Cl)cc2)C(c2ccccc2)C1 (stereo not drawn) [Compound 36] | 41.3 ± 4.2 µM | 4.0 ± 0.9 | 161 ± 16.5 µM | – | – | –
O=C(c1cc2ccccc2o1)N1CCN(C(=O)Nc2cc(C(F)(F)F)ccc2Cl)C(c2ccccc2)C1 (stereo not drawn) [Compound 38] | 91.9 ± 35.7 µM | 1.4 ± 0.3 | 117 ± 21.1 µM | – | – | –
O=C(c1cc2ccccc2o1)N1CCN(C(=O)Nc2ccccc2[N+](=O)[O-])C(c2ccccc2)C1 (stereo not drawn) [Compound 39] | 226 ± 175 µM | >2.5 | > 1000 µM | – | – | –
CC1CN(C(=O)c2cc3ccccc3o2)CCN1C(=O)NC12CC3CC(CC(C3)C1)C2 (stereo not drawn) [Compound 41, 4-(Benzofuran-2-carbonyl)-2-methyl-1-[(1-adamantyl)aminocarbonyl]piperazine] | 17.7 ± 5 µM | 5.1 ± 2.3 and ~ 5 | 103 ± 66.9 µM | < 20 µM | – | –
CC(=O)O[C@@]12CO[C@@H]1C[C@H](O)[C@@]1(C)C(=O)[C@H](O)C3=C(C)[C@@H](OC(=O)[C@H](O)[C@@H](NC(=O)OC(C)(C)C)c4ccccc4)C[C@@](O)([C@@H](OC(=O)c4ccccc4)[C@H]21)C3(C)C [Docetaxel, reference compound] | – | ˂1 | – | – | 0.0761 ± 0.0262 µM | < 0.001 µM

Source: publication PMC10706865, “Repurposing Study of 4-Acyl-1-phenylaminocarbonyl-2-substituted-piperazine Derivatives as Potential Anticancer Agents—In Vitro Evaluation against Breast Cancer Cells” (International Journal of Molecular Sciences, 2023)
